From patent publication US20260043028A1, “TREATMENT OF SPINAL MUSCULAR ATROPHY” (University of Pittsburgh - Of the Commonwealth System of …, priority 2023, published 2026)

Tested on: human patients with Type 3 SMA
Experiment: Four-week spinal cord stimulation (SCS) trial in SMA patients with or without concurrent SMA therapy (Nusinersen), with long-term follow-up
Assay type: in vivo
Text: This example describes a particular method that can be used to treat SMA in a patient by applying a therapeutically effective amount of an electrical stimulus to the dorsolateral aspect of the spinal cord containing sensory neurons innervating a body region of the patient with motor impairment due to SMA. Although particular methods and protocols are provided, one skilled in the art will appreciate that variations can be made without substantially affecting the treatment. Three patients with SMA were identified and participated in this spinal cord stimulation trial. […]
Three human patients with Type 3 SMA that show quantifiable motor deficits of the legs are selected for treatment. […]
This example aims to measure immediate, end-of-study, and long-term effects of SCS on SMA including various clinical outcomes. […] As used herein, “immediate” refers to effects measured during the four-week study and relates to the usage of SCS. […] As used herein, “end-of-study” refers to effects measured within about 1 week before or after the end of the four-week study, around the time that the SCS electrodes are removed. […] In particular, as used herein, “long-term” refers to effects measured 50+ days after the electrodes are removed and relates to changes in motor ability over time without the continuous application of SCS. […]

## Nusinersen
SMA02 and SMA03 (Nusinersen plus SCS) vs SMA01 (SCS only), during the four-week experiment
  results throughout the course of the four-week experiment, compared with the patient not treated with an SMA therapy: did not exhibit substantially better results
SMA02 and SMA03 on SMA therapy during SCS, long-term follow-up (50+ days after explant), SMA01 without therapy showed long-term degradation
  long-term course of the beneficial effects of SCS: long-term stability in the beneficial effects of SCS
